Where “and” joins values, the source holds several entries; their conditions need not be identical. Identical values can stand only once. Toxic doses and inconclusive results are not listed.

Results on 18 molecules are retold here after PubChem BioAssay AID328 (DTP/NCI, 2004).

For this assay, the system named is BDF1 mice, P388 leukemia ip, median survival T/C. The assay can be described thus: NCI In Vivo Anticancer Drug Screen. Data for tumor model P388 Leukemia (intraperitoneal) in B6D2F1 (BDF1) mice. The settings on record: endpoint: median survival time, higher = longer survival. The method in brief: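 Reported as T/C, where T is the survival measurement in dosed animals and C the same measurement in vehicle controls.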

The mark [1] stands for this setting: dose: 25.0 mg/kg/injection, schedule: Q04DX003 (ip), vehicle: Klucel (hydroxypropylcellulose) (HPC).
Setting [2] is: dose: 50.0 mg/kg/injection, schedule: Q01DX009 (ip), vehicle: saline with Tween-80.
Setting [3] is: dose: 100.0 mg/kg/injection, schedule: Q01DX009 (ip), vehicle: saline with Tween-80.
[4] abbreviates: dose: 200.0 mg/kg/injection, schedule: Q01DX009 (ip), vehicle: saline with Tween-80.

As for `NN=C1CCC(=NN)CC1`, the T/C was 100 % of control (dose: 12.5 mg/kg/injection, schedule: Q01DX009 (ip), vehicle: water); 105 % of control and 109 % of control (dose: 25.0 mg/kg/injection, schedule: Q01DX009 (ip), vehicle: water); 90 % of control and 104 % of control (dose: 25.0 mg/kg/injection, schedule: Q04DX003 (ip), vehicle: water); 103 % of control and 113 % of control and 114 % of control (dose: 50.0 mg/kg/injection, schedule: Q01DX009 (ip), vehicle: water); 95 % of control and 114 % of control and 118 % of control (dose: 50.0 mg/kg/injection, schedule: Q04DX003 (ip), vehicle: water); 102 % of control and 111 % of control (dose: 100.0 mg/kg/injection, schedule: Q04DX003 (ip), vehicle: water). For the setting “dose: 200.0 mg/kg/injection, schedule: Q04DX003 (ip), vehicle: water”, the T/C was 92 % of control.
As to `CCCNC(=O)Nc1cccc(C(F)(F)F)c1`, the T/C is 104 % of control (dose: 100.0 mg/kg/injection, schedule: Q04DX003 (ip), vehicle: saline with Tween-80); 109 % of control (dose: 200.0 mg/kg/injection, schedule: Q04DX003 (ip), vehicle: saline with Tween-80); 100 % of control (dose: 400.0 mg/kg/injection, schedule: Q04DX003 (ip), vehicle: saline with Tween-80).
As for `CN(C)C(C#N)c1c[nH]c2ccccc12` (stereo not given), the T/C by setting is: (dose: 6.25 mg/kg/injection, schedule: Q01DX009 (ip), vehicle: Klucel (hydroxypropylcellulose) (HPC)) 105 % of control; (dose: 6.25 mg/kg/injection, schedule: Q04DX003 (ip), vehicle: Klucel (hydroxypropylcellulose) (HPC)) 109 % of control; (dose: 12.5 mg/kg/injection, schedule: Q01DX009 (ip), vehicle: Klucel (hydroxypropylcellulose) (HPC)) 100 % of control; (dose: 12.5 mg/kg/injection, schedule: Q04DX003 (ip), vehicle: Klucel (hydroxypropylcellulose) (HPC)) 100 % of control; (dose: 25.0 mg/kg/injection, schedule: Q01DX009 (ip), vehicle: Klucel (hydroxypropylcellulose) (HPC)) 94 % of control; under setting [1], 100 % of control.
In the case of `N#CCc1ccc2c(c1)[nH]c1ccccc12`, the T/C reads like this: (dose: 50.0 mg/kg/injection, schedule: Q04DX003 (ip), vehicle: saline sonified) 104 % of control; (dose: 100.0 mg/kg/injection, schedule: Q04DX003 (ip), vehicle: saline sonified) 109 % of control; (dose: 200.0 mg/kg/injection, schedule: Q04DX003 (ip), vehicle: saline sonified) 104 % of control.
Regarding `O=[N+]([O-])c1cc(C(F)(F)F)cc([N+](=O)[O-])c1N1CCCC(n2cccc2)C1` (stereo not given), the T/C runs as follows: under setting [2], 107 % of control; under setting [3], 109 % of control; under setting [4], 118 % of control.
On to `NNC12CC3CC(CC(C3)C1)C2`, for which the T/C is, setting by setting: (dose: 6.25 mg/kg/injection, schedule: Q01DX009 (ip), vehicle: saline) 95 % of control; (dose: 6.25 mg/kg/injection, schedule: Q04DX003 (ip), vehicle: saline) 102 % of control; (dose: 12.5 mg/kg/injection, schedule: Q01DX009 (ip), vehicle: saline) 86 % of control; (dose: 12.5 mg/kg/injection, schedule: Q04DX003 (ip), vehicle: saline) 100 % of control; (dose: 25.0 mg/kg/injection, schedule: Q01DX009 (ip), vehicle: saline) 86 % of control; (dose: 25.0 mg/kg/injection, schedule: Q04DX003 (ip), vehicle: saline) 98 % of control. Further, where the note is “dose: 50.0 mg/kg/injection, schedule: Q04DX003 (ip), vehicle: saline”, the T/C is 115 % of control.
For the molecule `O=C1CC/C(=N\O)N1`, the T/C runs as follows: (dose: 75.0 mg/kg/injection, schedule: Q01DX009 (ip), vehicle: saline) 93 % of control; (dose: 150.0 mg/kg/injection, schedule: Q01DX009 (ip), vehicle: saline) 86 % of control.
With `O=C1Nc2ccccc2SC1C1SC(=S)N(Cc2ccccc2)C1=O` (stereo not given), the T/C is, setting by setting: under setting [2], 102 % of control; under setting [3], 86 % of control; under setting [4], 86 % of control.
Take `O=C(CCN1CC1)Nc1ccc(Cl)c(Cl)c1`: the T/C was 90 % of control under setting [1]; 104 % of control (dose: 50.0 mg/kg/injection, schedule: Q04DX003 (ip), vehicle: Klucel (hydroxypropylcellulose) (HPC)); 100 % of control (dose: 100.0 mg/kg/injection, schedule: Q04DX003 (ip), vehicle: Klucel (hydroxypropylcellulose) (HPC)).
As for `NC(C(=O)O)C1=CCC=CC1` (stereo not given), the T/C under setting [2] was 98 % of control and the T/C under setting [3] was 99 % of control.
In the case of `[CH3][Sn]([CH3])([CH3])[O]C(=O)CCl`, the T/C was 120 % of control (dose: 0.75 mg/kg/injection, schedule: Q01DX009 (ip), vehicle: saline) and 106 % of control (dose: 1.5 mg/kg/injection, schedule: Q01DX009 (ip), vehicle: saline).
Take `NOCc1ccccc1CON`: the T/C runs as follows: (dose: 37.5 mg/kg/injection, schedule: Q04DX003 (ip), vehicle: saline) 108 % of control; (dose: 75.0 mg/kg/injection, schedule: Q04DX003 (ip), vehicle: saline) 95 % of control; (dose: 150.0 mg/kg/injection, schedule: Q04DX003 (ip), vehicle: saline) 100 % of control.
On to `O=C1/C(=C/c2ccco2)CCC2CC3(CCC12)OCCO3` (stereo not given), for which the T/C by setting is: (dose: 100.0 mg/kg/injection, schedule: Q04DX003 (ip), vehicle: other) 108 % of control; (dose: 200.0 mg/kg/injection, schedule: Q04DX003 (ip), vehicle: other) 91 % of control; (dose: 400.0 mg/kg/injection, schedule: Q04DX003 (ip), vehicle: other) 108 % of control.
Take `Clc1nnc(Cl)c(Cl)c1Cl`: the T/C was 100 % of control (dose: 0.22 mg/kg/injection, schedule: Q01DX009 (ip), vehicle: Klucel (hydroxypropylcellulose) (HPC)); 100 % of control (dose: 0.22 mg/kg/injection, schedule: Q04DX003 (ip), vehicle: Klucel (hydroxypropylcellulose) (HPC)); 91 % of control (dose: 0.45 mg/kg/injection, schedule: Q01DX009 (ip), vehicle: Klucel (hydroxypropylcellulose) (HPC)); 118 % of control (dose: 0.45 mg/kg/injection, schedule: Q04DX003 (ip), vehicle: Klucel (hydroxypropylcellulose) (HPC)); 91 % of control (dose: 0.9 mg/kg/injection, schedule: Q01DX009 (ip), vehicle: Klucel (hydroxypropylcellulose) (HPC)); 104 % of control (dose: 0.9 mg/kg/injection, schedule: Q04DX003 (ip), vehicle: Klucel (hydroxypropylcellulose) (HPC)). In addition, the T/C (dose: 1.3 mg/kg/injection, schedule: Q04DX003 (ip), vehicle: Klucel (hydroxypropylcellulose) (HPC)) was 104 % of control; the T/C (dose: 2.0 mg/kg/injection, schedule: Q04DX003 (ip), vehicle: Klucel (hydroxypropylcellulose) (HPC)) was 113 % of control; the T/C (dose: 2.8 mg/kg/injection, schedule: Q01DX009 (ip), vehicle: saline) was 87 % of control; the T/C (dose: 3.0 mg/kg/injection, schedule: Q04DX003 (ip), vehicle: Klucel (hydroxypropylcellulose) (HPC)) is 104 % of control.
For the molecule `Cc1c2oc3c(C)ccc(C(=O)NCc4ccccc4)c3nc-2c(C(=O)NCc2ccccc2)c(N)c1=O`, the T/C reads like this: (dose: 100.0 mg/kg/injection, schedule: Q04DX002 (sc), vehicle: olive oil, sesame oil, peanut oil) 99 % of control; (dose: 200.0 mg/kg/injection, schedule: Q04DX002 (sc), vehicle: olive oil, sesame oil, peanut oil) 98 % of control; (dose: 400.0 mg/kg/injection, schedule: Q04DX002 (sc), vehicle: olive oil, sesame oil, peanut oil) 101 % of control.
With `NC(=S)N/N=C/c1cc(-c2cccc(N)c2)ccn1`, the T/C was 154 % of control (dose: 12.5 mg/kg/injection, schedule: Q01DX009 (ip), vehicle: saline with Tween-80); 162 % of control (dose: 25.0 mg/kg/injection, schedule: Q01DX009 (ip), vehicle: saline with Tween-80); 211 % of control under setting [2]; 178 % of control (dose: 75.0 mg/kg/injection, schedule: Q01DX009 (ip), vehicle: saline with Tween-80).
For `NC(Cc1cccs1)C(=O)O` (stereo not given), the T/C under setting [3] was 100 % of control; the T/C under setting [4] was 110 % of control; the T/C (dose: 400.0 mg/kg/injection, schedule: Q01DX009 (ip), vehicle: saline with Tween-80) was 110 % of control.
Regarding `CC(C)(C)c1cc(C(=O)O)c(Sc2c(C(=O)O)cc(C(C)(C)C)cc2C(C)(C)O)c(C(C)(C)O)c1`, the T/C by setting is: (dose: 100.0 mg/kg/injection, schedule: Q01DX001 (ip), vehicle: saline with Tween-80) 101 % of control; (dose: 200.0 mg/kg/injection, schedule: Q01DX001 (ip), vehicle: saline with Tween-80) 101 % of control; (dose: 400.0 mg/kg/injection, schedule: Q01DX001 (ip), vehicle: saline with Tween-80) 113 % of control.
